Measured values as given in patent US9220758B2, “Calcitonin products and therapies for treating inflammatory or degenerative diseases” (UGP Therapeutics, Inc., priority 2010, dated 2015).

Tests used:
Type in all cases: cell-based
[1] = system: bovine articular cartilage explants; assay: PGE2 release from cytokine-stimulated bovine cartilage explants (ELISA); details: for highest ineffective concentration, PGE2 release: TNFa/IL-1a/OSM 10 ng/ml each, 3 week culture; for normalized PGE2 release: stimulated control = 100%
Procedure: (§1) Full thickness cartilage was obtained from the metacarpophalangeal joints of approximately 6 months old calves (from a local slaughterhouse). Cartilage punches (4 mm) were taken from the cartilage and placed in culture dishes with culture medium (DMEM+FCS, penicillin, streptomycin and ascorbic acid). Cartilage explants were weighed and explants between about 5 and about 15 mg were divided into a 96-well culture plate with 1 explant per well and 200 μL culture medium. Cartilage degradation was induced by addition of TNFα, IL-1α, and OSM at 10 ng/mL each to the culture medium. Test agents were then added at different concentrations. During three weeks of culture, the culture medium and the test compounds were refreshed once weekly. In addition fresh calcitonin was added twice weekly to the cartilage explants. Culture medium and cartilage explants were stored at −20° C. until analysis. Each culture condition was cultured in four-fold and the entire experiment was performed on cartilage from three different paws. The different culture conditions are listed below in Table 1.
(§2) Outcome parameters included (i) CTX-II in the culture medium as a measure of collagen degradation, (ii) GAG in the culture medium and cartilage explant as a measure of proteoglycan degradation, (iii) prostaglandin E2 (PGE2) measured by ELISA in the culture medium as a measure of inflammation, and (iv) general MMP activity in the culture medium. Not all outcome parameters were determined for each of the culture conditions.
The prostaglandin E2 release was measured as PGE2 release per mg cartilage. PGE2 was determined in the pooled medium using a PGE2 ELISA from R&D Systems. This value was normalized against the control condition of each donor to correct for donor variation. The basal release of unstimulated cartilage is 11% (p<0.0 1) when the stimulated (IL-1a, TNFα and OSM) control is set to 100%.
as §1, with “the culture medium to induce cartilage degradation. Test agents” for “the culture medium. Test agents”, “in Table 3.” for “in Table 1.”

[2] = system: bovine articular cartilage explants; assay: Proteoglycan (GAG) release from cytokine-stimulated bovine cartilage explants (Blyscan assay); details: for highest ineffective concentration, Proteoglycan release: TNFa/IL-1a/OSM 10 ng/ml each, 3 week culture; for normalized GAG (proteoglycan) release: stimulated control = 100%; for effect on proteoglycan release (in words): Example 1, concentrations of Table 1
Procedure: as §1, §2
The proteoglycan release is measured as GAG release per mg cartilage. Proteoglycan (GAG) content was determined in the pooled medium and explants using the Blyscan® colorimetric assay (Biocolor, Belfast, UK). This value is normalized against the control condition of each donor to correct for donor variation. The basal release of unstimulated cartilage is 36% (p<0.05) when the stimulated (IL-1a, TNFα and OSM) control is set to 100%.
as §1, with “the culture medium to induce cartilage degradation. Test agents” for “the culture medium. Test agents”, “in Table 3.” for “in Table 1.”

[3] = system: bovine articular cartilage explants; assay: Collagen (CTX-II) release from cytokine-stimulated bovine cartilage explants (CTX-II ELISA); details: for highest ineffective concentration, Collagen Release: TNFa/IL-1a/OSM 10 ng/ml each, 3 week culture; for CTX-II release: stimulated control 135; for effect on collagen release (in words): Example 1, concentrations of Table 1
Procedure: as §1, §2
Collagen release was measured as CTX-II release per mg cartilage. Collagen was measured in the pooled medium using the CTXII ELISA assay (Pre-clinical Cartilaps®, Nordic Bioscience).
as §1, with “the culture medium to induce cartilage degradation. Test agents” for “the culture medium. Test agents”, “in Table 3.” for “in Table 1.”

[4] = system: bovine articular cartilage explants; assay: General MMP activity in culture medium of cytokine-stimulated bovine cartilage explants (fluorogenic substrate); details: stimulated control 23
Procedure: as §2
The MMP activity was measured as MMP activity per mg cartilage.
as §1, with “the culture medium to induce cartilage degradation. Test agents” for “the culture medium. Test agents”, “in Table 3.” for “in Table 1.”

In the case of Calcitonin, the “highest ineffective concentration, PGE2 release” value [1] is reported as over 0.01 µM, the “normalized PGE2 release” value ([1]; compound alone at 10 nM) is reported as 117% and the “highest ineffective concentration, Proteoglycan release” value [2] is reported as over 0.01 µM. For the same compound, the “normalized GAG (proteoglycan) release” value ([2]; compound alone at 10 nM) was 87%, the “highest ineffective concentration, Collagen Release” value [3] was 0.0003 to 0.001 µM and the CTX-II release ([3]; compound alone at 0.5 nM) was 133 ng/mg cartilage. It also gave an MMP activity ([4]; compound alone at 10 nM) of 15 RFU/sec per mg cartilage.

With `CNC(=O)[C@H](Cc1c[nH]c2ccccc12)NC(=O)[C@@H](CC(=O)NO)CC(C)C` [Galardin] the “highest ineffective concentration, PGE2 release” value [1] was over 10 µM, the “effect on proteoglycan release (in words)” value [2] was “slightly inhibited” and the “highest ineffective concentration, Proteoglycan release” value [2] was 1 to 10 µM. For the same compound, the “normalized GAG (proteoglycan) release” value ([2]; compound alone at 10 μM) was 72%, the “effect on collagen release (in words)” value [3] was “inhibited” and the “highest ineffective concentration, Collagen Release” value [3] was under 0.1 µM.

For `Cc1ccc(-c2cc(C(F)(F)F)nn2-c2ccc(S(N)(=O)=O)cc2)cc1` [Celebrex ® (celecoxib), celecoxib], the “highest ineffective concentration, PGE2 release” value [1] was under 0.01 µM, the “highest ineffective concentration, Proteoglycan release” value [2] was 0.1 to 1 µM and the “highest ineffective concentration, Collagen Release” value [3] was over 10 µM.

With `C[C@@H]1C[C@H]2[C@@H]3CCC4=CC(=O)C=C[C@]4(C)[C@@]3(F)[C@@H](O)C[C@]2(C)[C@@]1(O)C(=O)CO` [Dexamethasone] the “highest ineffective concentration, PGE2 release” value [1] was under 0.01 µM, the “highest ineffective concentration, Proteoglycan release” value [2] was under 0.01 µM and the “highest ineffective concentration, Collagen Release” value [3] was under 0.01 µM.

For anakinra [Kineret ® (anakinra)], the “effect on PGE2 release (in words)” value ([1]; Example 1, concentrations of Table 1) was “inhibited all outcome parameters”, the “highest ineffective concentration, PGE2 release” value [1] was under 0.1 µg/mL and the “effect on proteoglycan release (in words)” value [2] was “inhibited all outcome parameters”. The “highest ineffective concentration, Proteoglycan release” value [2] was under 0.1 µg/mL and the “effect on collagen release (in words)” value [3] was “inhibited all outcome parameters”.

For `CNC(=O)[C@H](Cc1ccccc1)NC(=O)[C@H](CC(C)C)[C@H](CSc1cccs1)C(=O)NO` [BB-94], the “normalized GAG (proteoglycan) release” value ([2]; compound alone at 10 nM) was 83%, the “normalized GAG (proteoglycan) release” value ([2]; compound alone at 100 nM) was 80% and the CTX-II release ([3]; compound alone at 10 nM) was 137 ng/mg cartilage. It also gave a CTX-II release ([3]; compound alone at 100 nM) of 27 ng/mg cartilage, an MMP activity ([4]; compound alone at 10 nM) of 13 RFU/sec per mg cartilage and an MMP activity ([4]; compound alone at 100 nM) of 4 RFU/sec per mg cartilage.

For `C[C@H]1c2cccc(O)c2C(=O)C2=C(O)[C@]3(O)C(=O)C(C(N)=O)=C(O)[C@@H](N(C)C)[C@@H]3[C@@H](O)[C@@H]21` [Doxycycline], the “highest ineffective concentration, PGE2 release” value [1] was 1 to 10 µM, the “normalized PGE2 release” value ([1]; compound alone at 10 μM) was 111% and the “highest ineffective concentration, Proteoglycan release” value [2] was over 100 µM. For the same compound, the “normalized GAG (proteoglycan) release” value ([2]; compound alone at 100 μM) was 80%, the “highest ineffective concentration, Collagen Release” value [3] was 10 to 100 µM and the CTX-II release ([3]; compound alone at 10 μM) was 125 ng/mg cartilage. It also gave an MMP activity ([4]; compound alone at 10 μM) of 14 RFU/sec per mg cartilage.
